{"source": "paper PMC5259791", "about": "(Scientific Reports, 2017)", "key": {"PPARγ": {"molecular_target": "T1, PPARγ (Homo sapiens, UniProt P37231)", "T1 sequence (P37231 195-477 isoform P37231-2 limits assumed)": "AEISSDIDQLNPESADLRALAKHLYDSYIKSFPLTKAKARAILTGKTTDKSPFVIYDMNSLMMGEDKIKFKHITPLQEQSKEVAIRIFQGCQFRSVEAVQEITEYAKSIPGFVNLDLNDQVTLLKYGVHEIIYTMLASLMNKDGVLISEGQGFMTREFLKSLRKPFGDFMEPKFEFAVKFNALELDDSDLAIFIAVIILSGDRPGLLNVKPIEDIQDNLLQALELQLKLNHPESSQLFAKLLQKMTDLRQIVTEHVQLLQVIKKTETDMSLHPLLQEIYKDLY", "assay": "SPR on immobilized PPARγ", "type": "binding", "method": "; SPR analysis was also performed using the immobilized PPARγ LBD to evaluate if this protein portion was involved in the interaction with 1; […]. Conversely, no affinity of the diterpene towards Hsp60 was observed (Fig. 2c).\nTo assess the potential of 1 to act as a PPARγ modulator, we investigated the structural and functional aspects of its interaction with this nuclear receptor. To define the structural features required by 1 for an efficient interaction with PPARγ, as a first step, we performed SPR analyses using some diterpenes displaying structural relationship with 1 (compounds 2–9, Fig. 1). […]. SPR analyses were carried out on a BIACORE 3000 instrument (GE-Healthcare). PPARα, PPARγ, PPARδ and HSP60 surfaces were prepared on research−grade CM5 sensor chips (GE Healthcare). Proteins (100 μg/ml in 10 mM CH3COONa, pH 5.0) were immobilized using a standard amine−coupling protocol, to obtain densities of 3–5 kRU. Testing compounds were dissolved in 100% DMSO to obtain 4 mM solutions, and then diluted in PBS containing variable amounts of DMSO, achieving a final DMSO concentration of 0.1%. […]. SPR experiments and data elaboration were carried out as reported elsewhere."}, "PPARα": {"molecular_target": "T2, PPARα (Homo sapiens, UniProt Q07869)", "T2 construct": "purchased Tebu-Bio", "T2 sequence (Q07869 1-468)": "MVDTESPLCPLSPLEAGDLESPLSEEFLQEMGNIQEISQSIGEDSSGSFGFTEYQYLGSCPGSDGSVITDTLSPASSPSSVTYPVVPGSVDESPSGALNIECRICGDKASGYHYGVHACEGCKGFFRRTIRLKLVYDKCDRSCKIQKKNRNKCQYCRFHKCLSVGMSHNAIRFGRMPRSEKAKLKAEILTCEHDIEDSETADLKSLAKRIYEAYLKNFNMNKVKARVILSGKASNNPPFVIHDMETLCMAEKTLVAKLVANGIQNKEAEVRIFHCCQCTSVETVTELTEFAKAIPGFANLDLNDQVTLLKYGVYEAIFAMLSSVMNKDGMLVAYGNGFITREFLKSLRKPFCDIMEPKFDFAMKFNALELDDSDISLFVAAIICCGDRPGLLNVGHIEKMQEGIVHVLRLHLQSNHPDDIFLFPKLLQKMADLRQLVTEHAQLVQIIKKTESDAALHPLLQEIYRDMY", "assay": "SPR on immobilized PPARα", "type": "binding", "method": "In order to evaluate if 1 acts as a selective ligand of PPARγ, SPR analyses were also carried out on immobilized PPARα and PPARδ, two proteins structurally and functionally related to PPARγ[23][24].\n(§1) SPR analyses were carried out on a BIACORE 3000 instrument (GE-Healthcare). PPARα, PPARγ, PPARδ and HSP60 surfaces were prepared on research−grade CM5 sensor chips (GE Healthcare). Proteins (100 μg/ml in 10 mM CH3COONa, pH 5.0) were immobilized using a standard amine−coupling protocol, to obtain densities of 3–5 kRU. Testing compounds were dissolved in 100% DMSO to obtain 4 mM solutions, and then diluted in PBS containing variable amounts of DMSO, achieving a final DMSO concentration of 0.1%. For each molecule a five−point concentration series (25 nM, 65 nM, 150 nM, 400 nM, 1 μM) was set up. SPR experiments and data elaboration were carried out as reported elsewhere."}, "HT29 cells": {"system": "HT29 cells", "assay": "Western blot of proliferation/apoptosis markers in HT29 cells", "type": "cell-based", "text": "In addition, the expression of two components of the apoptotic pathway, such as caspase 3 and its substrate Poly (ADP-ribose) polymerase (PARP), was affected resulting in a reduction of the pro-caspase 3 precursor and an increase of the PARP cleaved form. Pre-treatment with GW9662 counteracted both the effects (Fig. 7b,c).\nThe graphs in (a–c) represent the mean ± SD of the protein/β-actin ratio from two independent experiments for p21^waf1/cip1, Caspase-3 precursor and cleaved PARP proteins, respectively. The graph in (d) represents the mean ± SD of pAKT/AKT ratio from two independent experiments.\nTreated and untreated cells were lysed in Ripa buffer (150 mM NaCl, 50 mM Tris-HCl, pH 7.6, 10 mM EDTA, 1% NP-40) containing also a protease inhibitors cocktail and then centrifugated at 17,000 RCF for 10 min, at 4 °C. Supernatant containing total proteins was quantified and 80 μg of each sample were separated on 12% SDS-PAGE. Western blotting assays were carried out] Protein extracts from treated and untreated cells were obtained, quantified and analyzed by Western blot as reported."}, "HT-29 cells": {"system": "HT-29 cells", "assay": "HT-29 cell growth (cell counting)", "quoted_text": "Data are the mean ± SD of three independent experiments performed in duplicate giving similar results. Significance is indicated as *p ≤ 0.05, **p ≤ 0.01 and ***p ≤ 0.001. (b) HT29 cells were seeded in 24-well in order to reach the density of cells/cm^2 in standard conditions (10^5 cells). […] The experiments were performed in triplicate and the data expressed as mean ± SD. Significance is indicated as **p ≤ 0.01 and ***p ≤ 0.001."}, "PPARγ LBD": {"molecular_target": "T3, PPARγ LBD (Homo sapiens, UniProt P37231)", "T3 construct": "Recombinant human PPARγ-LBD, consisting of the region 195–477 of PPARγ; purchased Bertin-Pharma", "T3 sequence (P37231 195-477 isoform P37231-2)": "T1 sequence (P37231 195-477 isoform P37231-2 limits assumed)", "assay": "SPR on immobilized PPARγ LBD", "type": "binding", "method": "Conversely, no affinity of the diterpene towards Hsp60 was observed (Fig. 2c).\nas §1"}, "[1]": {"conditions": "exposure for 6 h, compound alone"}}}
{"smiles": "C=C1C(=O)C23CCC4C(C(=O)OC)CC(O)CC4(C)C2CCC1C3", "note": "(stereo not shown) [Compound 1, 15-ketoatractyligenin methyl ester]", "values": [{"measurement": "dissociation of 1/PPARγ complex", "setting": "PPARγ; SPR, compared with 1/PPARα complex", "value": "required longer times and was incomplete"}, {"measurement": "Kd", "setting": "PPARγ; SPR, immobilized PPARγ", "value": "25.8 ± 5.5", "unit": "nM"}, {"measurement": "interaction with PPARγ pre-incubated with 1", "setting": "PPARγ; protein immobilized after 2 h incubation with 5-fold molar excess of 1", "value": "did not interact"}, {"measurement": "interaction with PPARα", "setting": "PPARα", "value": "only a weak interaction"}, {"measurement": "time to complete dissociation of complex", "setting": "PPARα; 1/PPARα complex", "value": "less than 50 s"}, {"measurement": "Kd", "setting": "PPARα; immobilized PPARα", "value": "1320 ± 80", "unit": "nM"}, {"measurement": "p21^waf1/cip1 levels", "setting": "HT29 cells; [1]", "value": "sharply increased"}, {"measurement": "p-AKT levels", "setting": "HT29 cells; [1]", "value": "robust reduction"}, {"measurement": "PARP cleaved form", "setting": "HT29 cells; exposure for 48 h", "value": "increase"}, {"measurement": "pro-caspase 3 precursor expression", "setting": "HT29 cells; exposure for 48 h", "value": "reduction"}, {"measurement": "inhibition of cell growth", "setting": "HT-29 cells; 1, 5 and 10 μM for 24 and 48 h", "value": "more pronounced dosage-dependent inhibition of cell growth than Rosiglitazone"}, {"measurement": "cell counts after GW9662 pre-treatment versus compound alone", "setting": "HT-29 cells; GW9662 10 μM 6 h, then compound 10 μM for 24 and 48 h", "value": "increased cell counts"}, {"measurement": "Kd", "setting": "PPARγ LBD", "value": "39.2 ± 3.9", "unit": "nM"}]}
